Reference: patent publication US10544130B2, “Metallo-beta-lactamase inhibitors” (priority 2015, dated 2020)

How the values were obtained:
[1] = system: Escherichia coli expressing NDM-1 (CLB30005, CLB30016); assay type: cell-based; settings: with imipenem 1 μg/ml; 95% inhibition of bacterial growth
Procedure, shortened: (§1)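 Growth read by absorbance after 22–24 h at 35 °C in CAMHB, with test compound alone or combined with 1 μg/ml imipenem. Inocula came from overnight 35 °C blood-agar colonies, set to a defined OD600 and diluted 1:100. Value is the inhibitor concentration giving synergy.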

[2] = system: Pseudomonas aeruginosa PAO1 MB9798 (efflux+, IMP-1); settings: ratio MITC95 PA 9798/MITC95 PA 9799; imipenem at 2 μg/mL
Procedure, shortened: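 Isogenic PAO1 pair (efflux+ MB9798, efflux− MB9799, both IMP-1) tested by microbroth MIC with fixed imipenem and/or ceftazidime, usually at CLSI breakpoint, plus fixed class A/C inhibitor against AmpC. MBL inhibitor titrated; concentration restoring susceptibility recorded and fold difference between strains taken as efflux extent.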

[3] = system: Serratia marcescens expressing IMP-1 (CL5741); assay type: cell-based; settings: with imipenem 1 μg/ml; 95% inhibition of bacterial growth
Procedure, shortened: as §1

## C[C@H](CN)NS(=O)(=O)c1ccc(-c2cccc3[nH]c(CN)nc23)c(-c2nn[nH]n2)c1S(N)(=O)=O [Example 383, (R)-4-(2-(aminomethyl)-1H-benzo[d]imidazol-4-yl)-N1-(1-aminopropan-2-yl)-3-(2H-tetrazol-5-yl)benzene-1,2-disulfonamide]
[1]
  Escherichia coli (NDM-1) MITC95: 0.7813 µM
[2]
  Efflux ratio: 1.00

## C[C@@H](CN)NS(=O)(=O)c1ccc(-c2ccnc(N)c2)c(-c2nn[nH]n2)c1S(N)(=O)=O [Example 398, (S)-N^1-(1-aminopropan-2-yl)-4-(2-aminopyridin-4-yl)-3-(2H-tetrazol-5-yl)benzene-1,2-disulfonamide]
[1]
  Escherichia coli (NDM-1) MITC95: 3.125 µM
[3]
  Serratia marcescens (IMP-1) MITC95: 1.563 µM

## NCCN1CC[C@H](NS(=O)(=O)c2ccc(-c3cccc4[nH]c(N)nc34)c(-c3nn[nH]n3)c2S(N)(=O)=O)C1 [Example 268, (S)-4-(2-amino-1H-benzo[d]imidazol-4-yl)-N1-(1-(2-aminoethyl)pyrrolidin-3-yl)-3-(2H-tetrazol-5-yl)benzene-1,2-disulfonamide]
[1]
  Escherichia coli (NDM-1) MITC95: 0.7813 µM
[2]
  Efflux ratio: 1.00

## C[C@@H](N)c1nc2c(-c3ccc(S(=O)(=O)N[C@@H]4CCNC4)c(S(N)(=O)=O)c3-c3nn[nH]n3)cccc2[nH]1 [Example 273, 4-(2-((R)-1-aminoethyl)-1H-benzo[d]imidazol-4-yl)-N1-((R)-pyrrolidin-3-yl)-3-(2H-tetrazol-5-yl)benzene-1,2-disulfonamide]
[1]
  Escherichia coli (NDM-1) MITC95: 1.563 µM
[2]
  Efflux ratio: 1.00

## Nc1nc2c(-c3ccc(S(=O)(=O)NC[C@@]4(N)CCNC4)c(S(N)(=O)=O)c3-c3nn[nH]n3)cccc2s1 [Example 367, (R)-4-(2-aminobenzo[d]thiazol-4-yl)-N1-((3-aminopyrrolidin-3-yl)methyl)-3-(2H-tetrazol-5-yl)benzene-1,2-disulfonamide]
[1]
  Escherichia coli (NDM-1) MITC95: 1.563 µM
[2]
  Efflux ratio: 0.50

## C[C@@H](CCN)NS(=O)(=O)c1ccc(-c2cccc3[nH]c(N)nc23)c(-c2nn[nH]n2)c1S(N)(=O)=O [Example 267, (S)-4-(2-amino-1H-benzo[d]imidazol-4-yl)-N1-(4-aminobutan-2-yl)-3-(2H-tetrazol-5-yl)benzene-1,2-disulfonamide]
[1]
  Escherichia coli (NDM-1) MITC95: 0.7813 µM
[2]
  Efflux ratio: 1.00

## N[C@H](CO)c1nc2c(-c3ccc(S(=O)(=O)N[C@H]4CNC[C@H]4N)c(S(N)(=O)=O)c3-c3nn[nH]n3)cccc2[nH]1 [Example 323, 4-(2-((S)-1-amino-2-hydroxyethyl)-1H-benzo[d]imidazol-4-yl)-N1-((3S,4R)-4-aminopyrrolidin-3-yl)-3-(2H-tetrazol-5-yl)benzene-1,2-disulfonamide]
[1]
  Escherichia coli (NDM-1) MITC95: 1.563 µM
[2]
  Efflux ratio: 1.00

## NS(=O)(=O)c1c(S(=O)(=O)N[C@@H]2CCNC2)ccc(-c2cccn3ccnc23)c1-c1nn[nH]n1 [Example 291, (R)-4-(imidazo[1,2-a]pyridin-8-yl)-N1-(pyrrolidin-3-yl)-3-(2H-tetrazol-5-yl)benzene-1,2-disulfonamide]
[1]
  Escherichia coli (NDM-1) MITC95: 0.7813 µM
[2]
  Efflux ratio: 1.00

## C[C@H](CN)NS(=O)(=O)c1ccc(-c2cccn3ccnc23)c(-c2nn[nH]n2)c1S(N)(=O)=O [Example 384, (R)—N1-(1-aminopropan-2-yl)-4-(imidazo[1,2-a]pyridin-8-yl)-3-(2H-tetrazol-5-yl)benzene-1,2-disulfonamide]
[1]
  Escherichia coli (NDM-1) MITC95: 1.563 µM
[2]
  Efflux ratio: 0.50

## NCc1nc2cc(-c3ccc(S(=O)(=O)N[C@@H]4CCNC4)c(S(N)(=O)=O)c3-c3nn[nH]n3)ccc2[nH]1 [Example 274, (R)-4-(2-(aminomethyl)-1H-benzo[d]imidazol-5-yl)-N1-(pyrrolidin-3-yl)-3-(2H-tetrazol-5-yl)benzene-1,2-disulfonamide]
[1]
  Escherichia coli (NDM-1) MITC95: 0.7813 µM
[2]
  Efflux ratio: 1.00

## NC(=O)c1nc2c(-c3ccc(S(=O)(=O)N[C@H]4CCNC4)c(S(N)(=O)=O)c3-c3nn[nH]n3)cccc2[nH]1 [Example 292, (S)-4-(4-(N-(pyrrolidin-3-yl)sulfamoyl)-3-sulfamoyl-2-(2H-tetrazol-5-yl)phenyl)-1H-benzo[d]imidazole-2-carboxamide]
[1]
  Escherichia coli (NDM-1) MITC95: 1.563 µM
[2]
  Efflux ratio: 0.50

## CC[C@@H](CN)NS(=O)(=O)c1ccc(-c2cccc3[nH]c(N)nc23)c(-c2nn[nH]n2)c1S(N)(=O)=O [Example 264, (S)-4-(2-amino-1H-benzo[d]imidazol-4-yl)-N1-(1-aminobutan-2-yl)-3-(2H-tetrazol-5-yl)benzene-1,2-disulfonamide]
[1]
  Escherichia coli (NDM-1) MITC95: 0.7813 µM
[2]
  Efflux ratio: 4.00

## NCc1nc2c(-c3ccc(S(=O)(=O)NC[C@H](O)CN)c(S(N)(=O)=O)c3-c3nn[nH]n3)cccc2[nH]1 [Example 299, (R)—N1-(3-amino-2-hydroxypropyl)-4-(2-(aminomethyl)-1H-benzo[d]imidazol-4-yl)-3-(2H-tetrazol-5-yl)benzene-1,2-disulfonamide]
[1]
  Escherichia coli (NDM-1) MITC95: 0.7813 µM
[2]
  Efflux ratio: 1.00

## NCCNS(=O)(=O)c1ccc(-c2cccc3[nH]c([C@@H](N)CO)nc23)c(-c2nn[nH]n2)c1S(N)(=O)=O [Example 331, (R)-4-(2-(1-amino-2-hydroxyethyl)-1H-benzo[d]imidazol-4-yl)-N1-(2-aminoethyl)-3-(2H-tetrazol-5-yl)benzene-1,2-disulfonamide]
[1]
  Escherichia coli (NDM-1) MITC95: 1.563 µM
[2]
  Efflux ratio: 1.00

## NCc1nc2c(-c3ccc(S(=O)(=O)N[C@@H]4CCNC4)c(S(N)(=O)=O)c3-c3nn[nH]n3)cccc2[nH]1 [Example 283, (R)-4-(2-(aminomethyl)-1H-benzo[d]imidazol-4-yl)-N1-(pyrrolidin-3-yl)-3-(2H-tetrazol-5-yl)benzene-1,2-disulfonamide]
[1]
  Escherichia coli (NDM-1) MITC95: 0.7813 µM
[2]
  Efflux ratio: 1.00

## Nc1nc2c(-c3ccc(S(=O)(=O)NC4CCNCC4)c(S(N)(=O)=O)c3-c3nn[nH]n3)cccc2[nH]1 [Example 260, 4-(2-amino-1H-benzo[d]imidazol-4-yl)-N1-(piperidin-4-yl)-3-(1H-tetrazol-5-yl)benzene-1,2-disuffonamide]
[1]
  Escherichia coli (NDM-1) MITC95: 0.7813 µM
[2]
  Efflux ratio: 1.00

## NCC(=O)NC1CCC[C@@H](c2ccc(S(=O)(=O)N[C@@H]3CCNC3)c(S(N)(=O)=O)c2-c2nn[nH]n2)C1 (stereo partly drawn) [Example 270, 2-Amino-N-((3R)-3-(4-(N—((R)-pyrrolidin-3-yl)sulfamoyl)-3-sulfamoyl-2-(2H-tetrazol-5-yl)phenyl)cyclohexyl)acetamide]
[1]
  Escherichia coli (NDM-1) MITC95: 1.563 µM
[2]
  Efflux ratio: 1.00

## NCC(CN)NS(=O)(=O)c1ccc(-c2ccnc(-c3cnc(N)[nH]3)c2)c(-c2nnn[nH]2)c1S(N)(=O)=O [Example 437, 4-(2-(2-Amino-1H-imidazol-5-yl)pyridin-4-yl)-N^1-(1,3-diaminopropan-2-yl)-3-(1H-tetrazol-5-yl)benzene-1,2-disulfonamide]
[1]
  Escherichia coli (NDM-1) MITC95: 0.7813 µM

## Nc1nc2c(-c3ccc(S(=O)(=O)NC[C@H]4CNCCN4)c(S(N)(=O)=O)c3-c3nn[nH]n3)cccc2[nH]1 [Example 314, (R)-4-(2-amino-1H-benzo[d]imidazol-4-yl)-N1-(piperazin-2-ylmethyl)-3-(2H-tetrazol-5-yl)benzene-1,2-disulfonamide]
[1]
  Escherichia coli (NDM-1) MITC95: 0.7813 µM
[2]
  Efflux ratio: 1.00

## Nc1cccc(-c2ccc(S(=O)(=O)N[C@@H]3CCNC3)c(S(N)(=O)=O)c2-c2nn[nH]n2)n1 [Example 277, (R)-4-(6-aminopyridin-2-yl)-N1-(pyrrolidin-3-yl)-3-(2H-tetrazol-5-yl)benzene-1,2-disulfonamide]
[1]
  Escherichia coli (NDM-1) MITC95: 0.7813 µM
[2]
  Efflux ratio: 1.00

## NC[C@@H](CO)NS(=O)(=O)c1ccc(-c2cccc3[nH]c(N)nc23)c(-c2nnn[nH]2)c1S(N)(=O)=O [Example 426, (S)-4-(2-Amino-1H-benzo[d]imidazol-4-yl)-N^1-(1-amino-3-hydroxypropan-2-yl)-3-(1H-tetrazol-5-yl)benzene-1,2-disulfonamide]
[1]
  Escherichia coli (NDM-1) MITC95: 0.3906 µM

## NCCNc1cc(-c2ccc(S(=O)(=O)N[C@@H]3CCNC3)c(S(N)(=O)=O)c2-c2nn[nH]n2)ccn1 [Example 458, (R)-4-(2-((2-aminoethyl)amino)pyridin-4-yl)-N1-(pyrrolidin-3-yl)-3-(2H-tetrazol-5-yl)benzene-1,2-disulfonamide]
[1]
  Escherichia coli (NDM-1) MITC95: 0.7813 µM

## NCc1nc2cc(-c3ccc(S(=O)(=O)NC[C@H](O)CN)c(S(N)(=O)=O)c3-c3nn[nH]n3)ccc2[nH]1 [Example 464, (R)—N1-(3-amino-2-hydroxypropyl)-4-(2-(aminomethyl)-1H-benzo[d]imidazole-5-yl)-3-(2H-tetrazol-5-yl)benzene-1,2-disulfonamide]
[1]
  Escherichia coli (NDM-1) MITC95: 0.7813 µM
